# Reference: US20230322767A1, “ARYL SUBSTITUTED PYRROLO-PYRIDINONES AND THERAPEUTIC USES THEREOF” (Bayer Aktiengesellschaft, priority 2020, published 2023)
# Biological target: wild-type Epidermal Growth Factor Receptor (EGFR) (Homo sapiens (Human), UniProt P00533)
# Assay: WT-EGFR Kinase Assay (TR-FRET, 2 mM ATP)
# Assay type: biochemical
# Conditions: EGFR Wildtyp 2 mM ATP IC50 [mol/l] (median), median or individual measurements
# Source text: Inhibitory activity of compounds of the present invention against wild-type Epidermal Growth Factor Receptor (EGFR) was quantified employing the TR-FRET based EGFR assay as described in the following paragraphs.
# Recombinant fusion protein of N-terminal Glutathion-S-Transferase (GST) and a fragment of human EGFR (amino acids R669 to A1210), expressed in Sf9 insect cells and purified via affinity chromatography using Glutathion Sepharose as described above, was used as kinase. As substrate for the kinase reaction the biotinylated peptide biotin-Ahx-[…] (C-terminus in amide form) was used which can be purchased e.g. form the company Biosynthan GmbH (Berlin-Buch, Germany).
# For the assay 50 nl of a 100 fold concentrated solution of the test compound in DMSO was pipetted into either a black low volume 384 well microtiter plate or a black 1536 well microtiter plate (both Greiner Bio-One, Frickenhausen, Germany), 2 μL of a solution of EGFR in aqueous assay buffer [50 mM Hepes pH 7.0, 10 mM MgCl2, 1 mM dithiothreitol, 0.5 mM EGTA, 0.3 mM activated sodium ortho-vanadate, 0.005% (w/v) bovine serum albumin, 0.005% (v/v) Tween-20] were added and the mixture was incubated for 15 min at 22° C. to allow pre-binding of the test compounds to the enzyme before the start of the kinase reaction. […] The concentration of EGFR was adjusted depending of the activity of the enzyme lot and was chosen appropriate to have the assay in the linear range, typical concentration was […]. The reaction was stopped by the addition of 3 μL of a solution of HTRF detection reagents (83.3 nM streptavidine-XL665 [Cisbio Bioassays, Codolet, France] and 1.67 nM PT66-Tb-Cryptate, a terbium-cryptate labelled anti-phospho-tyrosine antibody from Cisbio Bioassays [instead of the PT66-Tb-cryptate PT66-Eu-Chelate from Perkin Elmer can also be used]) in an aqueous EDTA-solution (133.3 mM EDTA, 0.2% (w/v) bovine serum albumin in 50 mM HEPES pH 7.5).
# The resulting mixture was incubated 1 h at 22° C. to allow the binding of the biotinylated phosphorylated peptide to the streptavidine-XL665 and the PT66-Tb-Cryptate. Subsequently the amount of phosphorylated substrate was evaluated by measurement of the resonance energy transfer from the PT66-Tb-Cryptate to the streptavidine-XL665. Therefore, the fluorescence emissions at 620 nm and 665 nm after excitation at 337 nm were measured in a HTRF reader, e.g. a Pherastar (BMG Labtechnologies, Offenburg, Germany) or a Viewlux (Perkin-Elmer). The ratio of the emissions at 665 nm and at 622 nm was taken as the measure for the amount of phosphorylated substrate.
# Sequence of wild-type Epidermal Growth Factor Receptor (EGFR) (P00533 669-1210): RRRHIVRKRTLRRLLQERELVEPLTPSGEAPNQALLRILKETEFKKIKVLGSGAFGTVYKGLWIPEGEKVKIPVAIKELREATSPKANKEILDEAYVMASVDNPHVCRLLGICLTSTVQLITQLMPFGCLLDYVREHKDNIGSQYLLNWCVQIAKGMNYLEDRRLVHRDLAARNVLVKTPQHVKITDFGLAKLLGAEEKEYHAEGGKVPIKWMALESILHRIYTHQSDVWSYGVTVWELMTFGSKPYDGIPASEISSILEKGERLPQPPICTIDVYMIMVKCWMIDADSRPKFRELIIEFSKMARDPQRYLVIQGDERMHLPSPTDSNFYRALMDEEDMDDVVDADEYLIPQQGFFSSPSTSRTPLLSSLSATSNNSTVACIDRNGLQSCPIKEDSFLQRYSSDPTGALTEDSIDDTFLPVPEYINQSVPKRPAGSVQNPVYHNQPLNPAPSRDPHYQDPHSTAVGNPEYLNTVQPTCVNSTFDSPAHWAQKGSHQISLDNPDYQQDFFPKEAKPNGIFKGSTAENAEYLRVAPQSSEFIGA
row,SMILES,IC50
1,"O=C(Nc1cc(-c2[nH]c3cc[nH]c(=O)c3c2-c2ccccc2)ccn1)C(CC(F)F)c1ccc(F)cc1 (racemic) [Example 76, 4,4-difluoro-2-(4-fluorophenyl)-N-[4-(4-oxo-3-phenyl-4,5-dihydro-1H-pyrrolo[3,2-c]pyridin-2-yl)pyridin-2-yl]butanamide]",> 20 µM
2,"CC(C(=O)Nc1cc(-c2[nH]c3c(CC(F)(F)F)cn(C)c(=O)c3c2-c2ccccc2)ccn1)c1ccc(F)cc1 (single isomer, unassigned; (-)) [Example 016, (-)-2-(4-fluorophenyl)-N-{4-[5-methyl-4-oxo-3-phenyl-7-(2,2,2-trifluoroethyl)-4,5-dihydro-1H-pyrrolo[3,2-c]pyridin-2-yl]pyridin-2-yl}propanamide]",> 20 µM
3,"Cn1cc(CC(F)(F)F)c2[nH]c(-c3ccnc(NC(=O)C(CC(F)F)c4ccc(F)cc4)c3)c(-c3ccc(F)cc3)c2c1=O (single isomer, unassigned) [Example 027, 4,4-difluoro-2-(4-fluorophenyl)-N-{4-[3-(4-fluorophenyl)-5-methyl-4-oxo-7-(2,2,2-trifluoroethyl)-4,5-dihydro-1H-pyrrolo[3,2-c]pyridin-2-yl]pyridin-2-yl}butanamide]",> 20 µM
4,"CN1CC(CC2CC2)c2[nH]c(-c3ccnc(NC(=O)Cc4ccc(F)cc4)c3)c(-c3ccccc3)c2C1=O (racemic) [Example 055, N-{4-[7-(cyclopropylmethyl)-5-methyl-4-oxo-3-phenyl-4,5,6,7-tetrahydro-1H-pyrrolo[3,2-c]pyridin-2-yl]pyridin-2-yl}-2-(4-fluorophenyl)acetamide]",3.43 µM
5,"CN1C(=O)c2c([nH]c(-c3ccnc(NC(=O)C(CC(F)F)c4ccc(F)cc4)c3)c2-c2ccccc2)CC12CCC2 (single isomer, unassigned; (-)) [Example 050, (-)-4,4-difluoro-2-(4-fluorophenyl)-N-[4-(5′-methyl-4′-oxo-3′-phenyl-1′,4′,5′,7′-tetrahydrospiro-[cyclobutane-1,6′-pyrrolo[3,2-c]pyridin]-2′-yl)pyridin-2-yl]butanamide]",11.9 µM
6,"Cn1ccc2[nH]c(-c3ccnc(NC(=O)C(CC(F)F)c4ccc(F)cc4)c3)c(-c3ccccc3)c2c1=O (racemic) [Example 006, 4,4-difluoro-2-(4-fluorophenyl)-N-[4-(5-methyl-4-oxo-3-phenyl-4,5-dihydro-1H-pyrrolo[3,2-c]pyridin-2-yl)pyridin-2-yl]butanamide]",> 20 µM
7,"Cc1cn(C)c(=O)c2c(-c3ccc(F)cc3)c(-c3ccnc(NC(=O)C(CC(F)F)c4ccc(F)cc4)c3)[nH]c12 (single isomer, unassigned; (-)) [Example 035, (-)-4,4-difluoro-2-(4-fluorophenyl)-N-{4-[3-(4-fluorophenyl)-5,7-dimethyl-4-oxo-4,5-dihydro-1H-pyrrolo[3,2-c]pyridin-2-yl]pyridin-2-yl}butanamide]",> 20 µM
8,"CN1C(=O)c2c([nH]c(-c3ccnc(NC(=O)C(CC(F)F)c4ccc(F)cc4)c3)c2-c2ccccc2)CC12CCC2 (single isomer, unassigned; (+)) [Example 051, (+)-4,4-difluoro-2-(4-fluorophenyl)-N-[4-(5′-methyl-4′-oxo-3′-phenyl-1′,4′,5′,7′-tetrahydrospiro-[cyclobutane-1,6′-pyrrolo[3,2-c]pyridin]-2′-yl)pyridin-2-yl]butanamide]",3.2 µM
9,"CC(C(=O)Nc1cc(-c2[nH]c3c(c2-c2ccccc2)C(=O)NCC3(C)C)ccn1)c1ccc(F)cc1 (single isomer, unassigned) [Example 047, N-[4-(7,7-dimethyl-4-oxo-3-phenyl-4,5,6,7-tetrahydro-1H-pyrrolo[3,2-c]pyridin-2-yl)pyridin-2-yl]-2-(4-fluorophenyl)propanamide]",> 20 µM

# Same assay, conditions: read-out: EGFR Wildtyp 2 mM ATP IC50 [mol/l] (median), median or individual measurements
row,SMILES,IC50
1,"CC(C(=O)Nc1cc(-c2[nH]c3c(c2-c2ccccc2)C(=O)NCC3(C)C)ccn1)c1ccc(F)cc1 (single isomer, unassigned) [Example 048, N-[4-(7,7-dimethyl-4-oxo-3-phenyl-4,5,6,7-tetrahydro-1H-pyrrolo[3,2-c]pyridin-2-yl)pyridin-2-yl]-2-(4-fluorophenyl)propanamide]",> 20 µM
2,"Cc1cn(C)c(=O)c2c(-c3ccc(F)cc3)c(-c3ccnc(NC(=O)C(C)c4ccc(F)cc4)c3)[nH]c12 (single isomer, unassigned; (+)) [Example 032, (+)-2-(4-fluorophenyl)-N-{4-[3-(4-fluorophenyl)-5,7-dimethyl-4-oxo-4,5-dihydro-1H-pyrrolo[3,2-c]pyridin-2-yl]pyridin-2-yl}propanamide]",> 20 µM
3,CC(C(=O)Nc1cc(-c2[nH]c3c(c2-c2ccccc2)C(=O)N(C)CC3CC2CC2)ccn1)c1ccc(F)cc1 (stereo not shown) [Example 057],> 20 µM

# Biological target: CSNK1A1 (Homo sapiens (Human), UniProt P48729)
# Sequence (P48729 whole entry): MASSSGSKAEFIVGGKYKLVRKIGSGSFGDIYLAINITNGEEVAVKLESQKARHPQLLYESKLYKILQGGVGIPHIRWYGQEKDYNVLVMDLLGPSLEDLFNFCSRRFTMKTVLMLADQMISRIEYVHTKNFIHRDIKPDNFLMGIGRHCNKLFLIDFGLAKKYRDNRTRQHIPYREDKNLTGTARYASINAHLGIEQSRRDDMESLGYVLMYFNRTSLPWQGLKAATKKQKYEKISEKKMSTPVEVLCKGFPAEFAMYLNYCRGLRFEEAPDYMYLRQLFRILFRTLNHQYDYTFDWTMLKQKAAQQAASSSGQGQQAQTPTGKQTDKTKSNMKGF
# Assay: CSNK1A1 Assay 2 (ADP-Glo, 1 μM ATP)
# Assay type: biochemical
# Conditions: median, read-out: CSNK1A1 Assay 2 IC50 [mol/l] (median)
# Procedure: CSNK1A1-inhibitory activity of compounds of the present invention in presence of 1 μM adenosine-tri-phosphate (ATP) was quantified employing the CSNK1A1 assay as described in the following paragraphs. In essence, the enzyme activity is measured by quantification of the adenosine-di-phosphate (ADP), which is generated as a co-product of the enzyme reaction, via the “ADP-Glo™ Kinase Assay” kit from the company Promega. This detection system works as follows: In a first step the ATP not consumed in the kinase reaction is quantitatively converted to cAMP employing an adenylate cyclase (“ADP-Glo-reagent”), then the adenylate cyclase is stopped and the ADP generated in the kinase reaction converted to ATP which generates in a luciferase-based reaction a glow-luminescence signal (“Kinase Detection Reagent”).
# As substrate for the kinase reaction the biotinylated peptide biotin-Ahx-KRRRAL-pS-VASLPGL (C-terminus in amide form) was used which can be purchased e.g. from the company Biosyntan (Berlin-Buch, Germany).
# For the assay 50 nl of a 100 fold concentrated solution of the test compound in DMSO was pipetted into a white 1536-well microtiter plate (Greiner Bio-One, Frickenhausen, Germany), 2 μL of a solution of CSNK1A1 in aqueous assay buffer [50 mM HEPES pH 7.5, 10% (v/v) glycerol, 10 mM MgCl2, 50 mM NaCl, 1 mM dithiothreitol, 0.01% (w/v) bovine serum albumin, 0.01% (v/v) Triton X-100] were added and the mixture was incubated for 15 min at 22° C. to allow pre-binding of the test compounds to the enzyme before the start of the kinase reaction. […] The concentration of CSNK1A1 was adjusted depending of the activity of the enzyme lot and was chosen appropriate to have the assay in the linear range, a typical concentrations are about 0.0375 ng/μL. The reaction was stopped by the addition of 2.5 μL of “ADP-Glo-reagent” (1:1.5 fold diluted with water) and the resulting mixture was incubated at 22° C. for 1 h to convert the ATP not consumed in the kinase reaction completely […]. Subsequently 2.5 μL of the “kinase detection reagent” (1.2 fold more concentrated than recommended by the producer) were added, the resulting mixture was incubated at 22° C. for 1 h and then the luminescence measured with a suitable measurement instrument (e.g. Viewlux™ from Perkin-Elmer). The amount of emitted light was taken as a measure for the amount of ADP generated and thereby for the activity of the CSNK1A1.
row,SMILES,IC50
1,"O=C(Nc1cc(-c2[nH]c3cc[nH]c(=O)c3c2-c2ccccc2)ccn1)C(CC(F)F)c1ccc(F)cc1 (racemic) [Example 76, 4,4-difluoro-2-(4-fluorophenyl)-N-[4-(4-oxo-3-phenyl-4,5-dihydro-1H-pyrrolo[3,2-c]pyridin-2-yl)pyridin-2-yl]butanamide]",0.002 µM
